US11252960B2 (KIMBERLY-CLARK WORLDWIDE, INC., priority 2017, dated 2022)

How the values were obtained:
[1] = Determination of Dissociation Constant (pKa) by Potentiometric Titration Method; type: physicochemical; settings: ultrapure water, 22° C.
Protocol: Potentiometric Titration Method: A calibrated pH meter was used for the assay. 50 mL solution of each test/reference item solution (0.1 mg/mL) was added to four beakers (two for acid titration and two for base titration). 0.1 N Sodium hydroxide (NaOH) solution was prepared as titrant solution. The pH electrode was placed into the beaker containing test/reference item solution. The initial pH of the solution will be recorded. 100 μL of 0.1 N NaOH was added successively with stirring and the pH at each addition was recorded. Base titrations were carried out individually in duplicates until a sudden shift in the pH was observed.

[2] = tested on: Candida albicans (ATCC 10231); experiment: Anti-fungal Minimum Inhibitory Concentration (MIC) Method, microbroth dilution; type: cell-based; settings: RPMI-1640, 25° C., 48 hours, pH 4.5-adjusted stock
Protocol: (§1) Anti-Bacterial and Anti-Fungal Minimum Inhibitory Concentration (MIC) Method Method: Microbroth Dilution Method (96-well format). Test item: […] Solvent: Sterile MilliQ water and 0.1 M Citrate Buffer pH 4.5 Media used: • Bacterial: Cation-Adjusted Mueller-Hinton Broth (CAMHB) • Fungi: RPMI-1640 Fungi: • Incubation Temperature: • 25° C. (Candida albicans) • 35° C. (Aspergillus brasiliensis) • Incubation Time: 48 hours • Inoculum Size: 5×10^4 cfu/mL • Strains: • Candida albicans (ATCC 10231) • Aspergillus brasiliensis (ATCC 16404) • End point: Inhibition of growth, Spectrophotometer Reading @ 600 nm • Reference standards: […] All solubilized and pH 4.5-adjusted test compounds were filter-sterilized before subjecting to MIC study. […] All the strains were inoculated on their respective agar medium and incubated under conditions/durations detailed above. • Preparation of inoculum: • The bacterial colony suspension in 0.85% saline was adjusted to 1 McFarland's standard using […] which was further diluted to 1:100 in CAMHB. The fungal suspension for inoculation was prepared in 0.85% saline from 6 days old culture (for mold, A. brasiliensis) and from 2 days old culture (for yeast, C. albicans) from Sabouraud Dextrose agar medium. […] Micro titer plates were prepared as per the CLSI recommendations. One hundred and seventy five microliters of Cation-adjusted Muller Hinton Broth (CAMHB) was added to the first column of a 96 well flat bottom plate, which is the media control. Second column is for the stocks of the test compounds and reference standards from which dilutions are made. Then 175 μL of CAMHB was added to the 5th, 8th and 11th columns, 75 μL of CAMHB to the 4th, 7th and 10th columns and 50 μL of CAMHB to the 3rd, 6th and 9th columns and the last column was the organism control.

[3] = tested on: Aspergillus brasiliensis (ATCC 16404); experiment: as above; type: cell-based; settings: RPMI-1640, 35° C., 48 hours, pH 4.5-adjusted stock
Protocol: as §1

[4] = tested on: Burkholderia cepacia (ATCC 25416); experiment: Anti-bacterial Minimum Inhibitory Concentration (MIC) Method, microbroth dilution; type: cell-based; settings: CAMHB, 37° C., 24 hours, pH 4.5-adjusted stock
Protocol: as §1, with “RPMI-1640 […]” for “RPMI-1640”

[5] = tested on: Pseudomonas aeruginosa (ATCC 9027); experiment: as above; type: cell-based; settings: CAMHB, 37° C., 24 hours, pH 4.5-adjusted stock
Protocol: as §1, with “RPMI-1640 […]” for “RPMI-1640”

[6] = tested on: Escherichia coli (ATCC 8739); experiment: as above; type: cell-based; settings: CAMHB, 37° C., 24 hours, pH 4.5-adjusted stock
Protocol: as §1, with “RPMI-1640 […]” for “RPMI-1640”

[7] = tested on: Staphylococcus aureus (ATCC 6538); experiment: as above; type: cell-based; settings: CAMHB, 37° C., 24 hours, pH 4.5-adjusted stock
Protocol: as §1, with “RPMI-1640 […]” for “RPMI-1640”

[8] = type: physicochemical; settings: pH 4.5
Protocol: This water was used as a test media for determining the solubility of test/reference items. Stock solutions of concentration 1 mg/mL for test items/reference items was prepared in methanol. The stock solution will be used for preparation of calibration curve standards. Calibration curve of test/reference items was prepared by serially dilution consisting of 4-5-6 concentrations in 96 well format. […] The method was as follows: Calibration curve of test items were prepared by serial dilution consisting of 8 concentrations. […] Water, 50:50). […] 40 mg of test items were weighed into tubes. […] The initial pH of the solubility samples were recorded. […] Then, the solutions were observed visually for any precipitation. […] An aliquot of the supernatant were diluted with equal volume of methanol. […] The samples were then transferred to UV plate and scanned at λmax of that particular test/reference item. Compound #12 was transferred to auto-sampler vials and submitted for LC-MS/MS analysis.

| Molecule | pKa ([1]; pH 4.5, Table 1, 0.1 mg/ml) | MIC (%) C. albicans ([2]; Table 1) | MIC (%) A. brasiliensis ([3]; Table 1) | MIC (%) B. cepacia ([4]; Table 1) | MIC (%) P. aeruginosa ([5]; Table 1) | MIC (%) E. coli ([6]; Table 1) | MIC (%) S. Aureus ([7]; Table 1) | Solubility (wt %) [8] | MIC (%) C. albicans ([2]; Table 4) | MIC (%) A. brasiliensis ([3]; Table 4) | MIC (%) B. cepacia ([4]; Table 4) | MIC (%) P. aeruginosa ([5]; Table 4) | MIC (%) E. coli ([6]; Table 4) | MIC (%) S. Aureus ([7]; Table 4) | other results |
| --- | --- | --- | --- | --- | --- | --- | --- | --- | --- | --- | --- | --- | --- | --- | --- |
| O=C(O)c1ccc(OC2CC(O)C(CO)O2)cc1 (centres unmarked) [Compound 5, 4-{[4-hydroxy-5-(hydroxymethyl)oxolan-2-yl]oxy}benzoic acid] | 5.6 | >0.069% | >0.069% | 0.034% | 0.034% | >0.069% | 0.017% | 0.11 wt % | – | – | – | – | – | – | – |
| O=C(O)c1ccc(OCCO)cc1 [Compound 1, 4-(2-hydroxyethoxy) benzoic acid] | 4.95 | >0.165% | >0.165% | 0.082% | 0.082% | 0.165% | 0.041% | 0.2779 wt % | – | – | – | – | – | – | – |
| CCC(O)COC(=O)c1ccccc1 (centres unmarked) [Compound 12, Benzoic acid 2-hydroxy-butyl ester] | – | – | – | – | – | – | – | 0.24 wt % | 0.1175% | 0.0588% | 0.1175% | >0.1175% | 0.0588% | 0.1175% | pKa ([1]; pH 4.5, Table 3, 0.1 mg/ml): > 7 |
| O=C(O)c1ccc(OC2OC(CO)C(O)C2O)cc1 (centres unmarked) [Compound 4, 4-{[3,4-dihydroxy-5-(hydroxymethyl)oxolan-2-yl]oxy}benzoic acid] | 4.6 | >1% | >1% | 0.25% | 0.5% | 1% | 0.125% | >1.00 wt % | – | – | – | – | – | – | – |
| O=C(O)c1ccc(OCCCCO)cc1 [Compound 6, 4-(4-hydroxybutoxy) benzoic acid] | 4.6 | >0.04% | >0.04% | 0.02% | 0.04% | 0.04% | 0.01% | 0.0667 wt % | – | – | – | – | – | – | – |
| benzoic acid [reference compound] | – | 0.137% | 0.137% | 0.034% | 0.068% | 0.07% | 0.068% | – | 0.137% | 0.137% | 0.034% | 0.068% | 0.07% | 0.068% | – |
| O=C(OCCO)c1ccccc1 [Compound 8, Benzoic acid 2-hydroxyethyl ester] | – | – | – | – | – | – | – | >1.0 wt % | 0.475% | 0.118% | 0.118% | 0.237% | 0.475% | 0.475% | pKa ([1]; pH 4.5, Table 3, 0.1 mg/ml): > 7 |
| O=C(O)c1ccc(OCC(O)CO)cc1 (centres unmarked) [Compound 2, 4-(2,3-dihydroxypropoxy) benzoic acid] | 4.6 | >0.181% | >0.181% | 0.09% | 0.09% | 0.181% | 0.045% | 0.343 wt % | – | – | – | – | – | – | – |
| CC(O)COc1ccc(C(=O)O)cc1 (centres unmarked) [Compound 7, 4-(2-hydroxypropoxy) benzoic acid] | 5.6 | >0.079% | >0.079% | 0.02% | 0.039% | 0.079% | 0.02% | 0.123 wt % | – | – | – | – | – | – | – |
| O=C(O)c1ccc(O[C@@H]2O[C@H](CO)[C@H](O)[C@H](O)[C@H]2O)cc1 [Compound 3, 4-{[(3R,4S,5R,6R)-3,4,5-trihydroxy-6-(hydroxymethyl)oxan-2-yl]oxy}benzoic acid] | 4.5 | >0.87% | >0.87% | >0.87% | >0.87% | >0.87% | >0.87% | – | – | – | – | – | – | – | MIC (%) C. albicans ([2]; Table 1, listed as #3): > 0.87%; MIC (%) A. brasiliensis ([3]; Table 1, listed as #3): > 0.87%; MIC (%) B. cepacia ([4]; Table 1, listed as #3): > 0.87%; MIC (%) P. aeruginosa ([5]; Table 1, listed as #3): > 0.87%; MIC (%) E. coli ([6]; Table 1, listed as #3): > 0.87%; MIC (%) S. Aureus ([7]; Table 1, listed as #3): > 0.87% |
